Experimental data from US6846492B2, “Use of phenylethylamine derivatives for the antimicrobial treatment of surfaces” (Ciba Specialty Chemicals Corporation, priority 2000, dated 2005).

Tested on: Pseudomonas aeruginosa CIP A-22 (= PA)
Test: MIC determination in microtiter plates, Pseudomonas aeruginosa
Assay type: cell-based
Conditions: Tables 2a/2b, 48 hours at 37° C., ≦20% growth, optical density 620 nm, some approximate values
Experimental: (§1) Determination of the Minimum Inhibitory Concentration (MIC Value) in Microtiter Plates
(§2) Casein/soybean flour peptone bouillon for the preparation of pre-cultures of the test bacteria and yeast.
(§3) Mycological slant agar for the pre-culture of moulds
(§4) The test substances are pre-dissolved in dimethyl sulfoxide (DMSO) and tested in a dilution series of 1:2.
(§5) Bacteria and yeast are cultured overnight in CASO bouillon, the mould is cultured overnight on mycological slant agar, and washed off with 10 ml of 0.85% sodium chloride solution (+0.1% TritonX-100).
(§6) All the test organisms are adjusted to an organism count of 1−5×10^6 CFU/ml using 0.85% sodium chloride solution.
(§7) The test substances are pre-pipetted into microtiter plates in an amount of 8 μl per well.
(§8) Pre-diluted organism suspensions are diluted 1:100 in CASO bouillon (bacteria and yeast) or Sabouraud 2% glucose bouillon (mould) and are added in an amount of 192 μl per well to the test substances.
(§9) The test batches are incubated for 48 hours at 37° C. (bacteria and yeast) or for 5 days at 28° C. (mould).
(§10) After incubation, the growth is evaluated by reference to the turbidity of the test batches (optical density) at 620 nm in a microplate reader.
(§11) One microtiter plate is used for each test organism and substance concentration. All the substances are tested in duplicate.

SMILES | MIC [ppm] PA
NCCc1cc(OCc2cccc(F)c2)c(OCc2cccc(F)c2)c(OCc2cccc(F)c2)c1 [Compound 67] | >120 ppm
NCCc1ccc(OCc2ccc3ccccc3c2)c(OCc2ccc3ccccc3c2)c1 [Compound 20] | >120 ppm
NCCc1ccc(OCC(=O)OCc2ccccc2)c(OCC(=O)OCc2ccccc2)c1 [Compound 26] | >120 ppm
N#Cc1ccc(COc2ccc(CCN)cc2OCc2ccc(C#N)cc2)cc1 [Compound 13] | >120 ppm
CCCCCCCOc1ccc(CCN)cc1OCCCCCCC [Compound 37] | >120 ppm
CCCOC(=O)COc1ccc(CCN)cc1OCC(=O)OCCC [Compound 23] | >120 ppm
CCCOc1cc(CCN)cc(OCCC)c1OCCC [Compound 80] | >120 ppm
Cc1ccc(C(=O)COc2cc(CCN)cc(OCC(=O)c3ccc(C)cc3)c2OCC(=O)c2ccc(C)cc2)cc1 [Compound 98] | >120 ppm
NCCc1cc(OCC(=O)c2ccc(F)cc2)c(OCC(=O)c2ccc(F)cc2)c(OCC(=O)c2ccc(F)cc2)c1 [Compound 99] | >120 ppm
CCC(CC)Oc1cc(CCN)cc(OC(CC)CC)c1OC(CC)CC [Compound 86] | >120 ppm
COc1cccc(COc2ccc(CCN)cc2OCc2cccc(OC)c2)c1 [Compound 4] | >120 ppm
N#Cc1ccc(COc2cc(CCN)cc(OCc3ccc(C#N)cc3)c2OCc2ccc(C#N)cc2)cc1 [Compound 64] | >120 ppm
CCCCCCOc1ccc(CCN)cc1OCCCCCC [Compound 36] | >120 ppm
NCCc1ccc(OCc2ccc(F)cc2)c(OCc2ccc(F)cc2)c1 [Compound 17] | >120 ppm
NCCc1ccc(OCc2ccccc2F)c(OCc2ccccc2F)c1 [Compound 15] | 120 ppm
CC(C)(C)OC(=O)COc1ccc(CCN)cc1OCC(=O)OC(C)(C)C [Compound 25] | >120 ppm
Cc1ccccc1COc1ccc(CCN)cc1OCc1ccccc1C [Compound 5] | >120 ppm

Tested on: Staphylococcus hominis DMS 20328 (= SH)
Test: MIC determination in microtiter plates, Staphylococcus hominis
Assay type: cell-based
Conditions: Tables 2a/2b, 48 hours at 37° C., ≦20% growth, optical density 620 nm, tested at 120, 60, 30, 15, 7.5 and 3.5 ppm, some approximate
Experimental: as §1, §2, §3, §4, §5, §6, §7, §8, §9, §10, §11

SMILES | MIC [ppm] SH
NCCc1cc(OCc2cccc(F)c2)c(OCc2cccc(F)c2)c(OCc2cccc(F)c2)c1 [Compound 67] | 3.75 ppm
NCCc1ccc(OCc2ccc3ccccc3c2)c(OCc2ccc3ccccc3c2)c1 [Compound 20] | 3.75 ppm
NCCc1ccc(OCC(=O)OCc2ccccc2)c(OCC(=O)OCc2ccccc2)c1 [Compound 26] | >120 ppm
N#Cc1ccc(COc2ccc(CCN)cc2OCc2ccc(C#N)cc2)cc1 [Compound 13] | 120 ppm
CCCCCCCOc1ccc(CCN)cc1OCCCCCCC [Compound 37] | 3.75 ppm
CCCOC(=O)COc1ccc(CCN)cc1OCC(=O)OCCC [Compound 23] | >120 ppm
CCCOc1cc(CCN)cc(OCCC)c1OCCC [Compound 80] | 120 ppm
Cc1ccc(C(=O)COc2cc(CCN)cc(OCC(=O)c3ccc(C)cc3)c2OCC(=O)c2ccc(C)cc2)cc1 [Compound 98] | 30 ppm
NCCc1cc(OCC(=O)c2ccc(F)cc2)c(OCC(=O)c2ccc(F)cc2)c(OCC(=O)c2ccc(F)cc2)c1 [Compound 99] | 60 ppm
CCC(CC)Oc1cc(CCN)cc(OC(CC)CC)c1OC(CC)CC [Compound 86] | 7.5 ppm
COc1cccc(COc2ccc(CCN)cc2OCc2cccc(OC)c2)c1 [Compound 4] | 30 ppm
N#Cc1ccc(COc2cc(CCN)cc(OCc3ccc(C#N)cc3)c2OCc2ccc(C#N)cc2)cc1 [Compound 64] | >120 ppm
CCCCCCOc1ccc(CCN)cc1OCCCCCC [Compound 36] | 3.75 ppm
NCCc1ccc(OCc2ccc(F)cc2)c(OCc2ccc(F)cc2)c1 [Compound 17] | 12 ppm
NCCc1ccc(OCc2ccccc2F)c(OCc2ccccc2F)c1 [Compound 15] | 30 ppm
CC(C)(C)OC(=O)COc1ccc(CCN)cc1OCC(=O)OC(C)(C)C [Compound 25] | >120 ppm
Cc1ccccc1COc1ccc(CCN)cc1OCc1ccccc1C [Compound 5] | 7.5 ppm

Tested on: Escherichia coli NCTC 8196 (= EC)
Test: MIC determination in microtiter plates, Escherichia coli
Assay type: cell-based
Conditions: Tables 2a/2b, 48 hours at 37° C., ≦20% growth, optical density 620 nm, some approximate values
Experimental: as §1, §2, §3, §4, §5, §6, §7, §8, §9, §10, §11

SMILES | MIC [ppm] EC
NCCc1cc(OCc2cccc(F)c2)c(OCc2cccc(F)c2)c(OCc2cccc(F)c2)c1 [Compound 67] | 7.5 ppm
NCCc1ccc(OCc2ccc3ccccc3c2)c(OCc2ccc3ccccc3c2)c1 [Compound 20] | >120 ppm
NCCc1ccc(OCC(=O)OCc2ccccc2)c(OCC(=O)OCc2ccccc2)c1 [Compound 26] | >120 ppm
N#Cc1ccc(COc2ccc(CCN)cc2OCc2ccc(C#N)cc2)cc1 [Compound 13] | 120 ppm
CCCCCCCOc1ccc(CCN)cc1OCCCCCCC [Compound 37] | 30 ppm
CCCOC(=O)COc1ccc(CCN)cc1OCC(=O)OCCC [Compound 23] | >120 ppm
CCCOc1cc(CCN)cc(OCCC)c1OCCC [Compound 80] | 120 ppm
Cc1ccc(C(=O)COc2cc(CCN)cc(OCC(=O)c3ccc(C)cc3)c2OCC(=O)c2ccc(C)cc2)cc1 [Compound 98] | 30 ppm
NCCc1cc(OCC(=O)c2ccc(F)cc2)c(OCC(=O)c2ccc(F)cc2)c(OCC(=O)c2ccc(F)cc2)c1 [Compound 99] | 60 ppm
CCC(CC)Oc1cc(CCN)cc(OC(CC)CC)c1OC(CC)CC [Compound 86] | 15 ppm
COc1cccc(COc2ccc(CCN)cc2OCc2cccc(OC)c2)c1 [Compound 4] | 60 ppm
N#Cc1ccc(COc2cc(CCN)cc(OCc3ccc(C#N)cc3)c2OCc2ccc(C#N)cc2)cc1 [Compound 64] | >120 ppm
CCCCCCOc1ccc(CCN)cc1OCCCCCC [Compound 36] | 3.75 ppm
NCCc1ccc(OCc2ccc(F)cc2)c(OCc2ccc(F)cc2)c1 [Compound 17] | 24 ppm
NCCc1ccc(OCc2ccccc2F)c(OCc2ccccc2F)c1 [Compound 15] | 30 ppm
CC(C)(C)OC(=O)COc1ccc(CCN)cc1OCC(=O)OC(C)(C)C [Compound 25] | >120 ppm
Cc1ccccc1COc1ccc(CCN)cc1OCc1ccccc1C [Compound 5] | 15 ppm

Tested on: Aspergillus niger ATCC 6275 (= AN)
Test: MIC determination in microtiter plates, Aspergillus niger
Assay type: cell-based
Conditions: Tables 2a/2b, 5 days at 28° C., ≦20% growth, optical density 620 nm, some approximate values
Experimental: as §1, §2, §3, §4, §5, §6, §7, §8, §9, §10, §11

SMILES | MIC [ppm] AN
NCCc1cc(OCc2cccc(F)c2)c(OCc2cccc(F)c2)c(OCc2cccc(F)c2)c1 [Compound 67] | >120 ppm
NCCc1ccc(OCc2ccc3ccccc3c2)c(OCc2ccc3ccccc3c2)c1 [Compound 20] | >120 ppm
NCCc1ccc(OCC(=O)OCc2ccccc2)c(OCC(=O)OCc2ccccc2)c1 [Compound 26] | >120 ppm
N#Cc1ccc(COc2ccc(CCN)cc2OCc2ccc(C#N)cc2)cc1 [Compound 13] | >120 ppm
CCCCCCCOc1ccc(CCN)cc1OCCCCCCC [Compound 37] | >120 ppm
CCCOC(=O)COc1ccc(CCN)cc1OCC(=O)OCCC [Compound 23] | 15 ppm
CCCOc1cc(CCN)cc(OCCC)c1OCCC [Compound 80] | 120 ppm
Cc1ccc(C(=O)COc2cc(CCN)cc(OCC(=O)c3ccc(C)cc3)c2OCC(=O)c2ccc(C)cc2)cc1 [Compound 98] | >120 ppm
NCCc1cc(OCC(=O)c2ccc(F)cc2)c(OCC(=O)c2ccc(F)cc2)c(OCC(=O)c2ccc(F)cc2)c1 [Compound 99] | >120 ppm
CCC(CC)Oc1cc(CCN)cc(OC(CC)CC)c1OC(CC)CC [Compound 86] | 30 ppm
COc1cccc(COc2ccc(CCN)cc2OCc2cccc(OC)c2)c1 [Compound 4] | 7.5 ppm
N#Cc1ccc(COc2cc(CCN)cc(OCc3ccc(C#N)cc3)c2OCc2ccc(C#N)cc2)cc1 [Compound 64] | 15 ppm
CCCCCCOc1ccc(CCN)cc1OCCCCCC [Compound 36] | >120 ppm
NCCc1ccc(OCc2ccc(F)cc2)c(OCc2ccc(F)cc2)c1 [Compound 17] | >120 ppm
NCCc1ccc(OCc2ccccc2F)c(OCc2ccccc2F)c1 [Compound 15] | >120 ppm
CC(C)(C)OC(=O)COc1ccc(CCN)cc1OCC(=O)OC(C)(C)C [Compound 25] | 15 ppm
Cc1ccccc1COc1ccc(CCN)cc1OCc1ccccc1C [Compound 5] | 7.5 ppm

Tested on: Candida albicans ATCC 10231 (= CA)
Test: MIC determination in microtiter plates, Candida albicans
Assay type: cell-based
Conditions: Tables 2a/2b, 48 hours at 37° C., ≦20% growth, optical density 620 nm, some approximate values
Experimental: as §1, §2, §3, §4, §5, §6, §7, §8, §9, §10, §11

SMILES | MIC [ppm] CA
NCCc1cc(OCc2cccc(F)c2)c(OCc2cccc(F)c2)c(OCc2cccc(F)c2)c1 [Compound 67] | 7.5 ppm
NCCc1ccc(OCc2ccc3ccccc3c2)c(OCc2ccc3ccccc3c2)c1 [Compound 20] | >120 ppm
NCCc1ccc(OCC(=O)OCc2ccccc2)c(OCC(=O)OCc2ccccc2)c1 [Compound 26] | >120 ppm
N#Cc1ccc(COc2ccc(CCN)cc2OCc2ccc(C#N)cc2)cc1 [Compound 13] | >120 ppm
CCCCCCCOc1ccc(CCN)cc1OCCCCCCC [Compound 37] | 30 ppm
CCCOC(=O)COc1ccc(CCN)cc1OCC(=O)OCCC [Compound 23] | >120 ppm
CCCOc1cc(CCN)cc(OCCC)c1OCCC [Compound 80] | >120 ppm
Cc1ccc(C(=O)COc2cc(CCN)cc(OCC(=O)c3ccc(C)cc3)c2OCC(=O)c2ccc(C)cc2)cc1 [Compound 98] | >120 ppm
NCCc1cc(OCC(=O)c2ccc(F)cc2)c(OCC(=O)c2ccc(F)cc2)c(OCC(=O)c2ccc(F)cc2)c1 [Compound 99] | >120 ppm
CCC(CC)Oc1cc(CCN)cc(OC(CC)CC)c1OC(CC)CC [Compound 86] | 60 ppm
COc1cccc(COc2ccc(CCN)cc2OCc2cccc(OC)c2)c1 [Compound 4] | 60 ppm
N#Cc1ccc(COc2cc(CCN)cc(OCc3ccc(C#N)cc3)c2OCc2ccc(C#N)cc2)cc1 [Compound 64] | 60 ppm
CCCCCCOc1ccc(CCN)cc1OCCCCCC [Compound 36] | 3.75 ppm
NCCc1ccc(OCc2ccc(F)cc2)c(OCc2ccc(F)cc2)c1 [Compound 17] | 60 ppm
NCCc1ccc(OCc2ccccc2F)c(OCc2ccccc2F)c1 [Compound 15] | 30 ppm
CC(C)(C)OC(=O)COc1ccc(CCN)cc1OCC(=O)OC(C)(C)C [Compound 25] | >120 ppm
Cc1ccccc1COc1ccc(CCN)cc1OCc1ccccc1C [Compound 5] | 15 ppm
